Patent US4154852A, “Novel aminobenzocycloheptenes” (Roussel Uclaf, priority 1976, dated 1979)
pIC50: −log10 of the molar value.

Experiments:
[1] = test system: effects of nialamide (monoamine oxidase inhibitor); assay: Potentialization of effects of monoamine oxidase inhibitor (nialamide) in mice, actimetric measurement; format: in vivo; details: nialamide 100 mg/kg i.p. 30 minutes before, 6 hours
Method: The administration of a monoamine oxidase inhibitor to mice induces a hyperactive movement of the animals which is able to be potentialized by an antidepressant. Using the procedure of Carlsson et al [Brain Research, Vol. 12 (1969), p. 456], a dose of 100 mg/kg of nialamide was intraperitoneally administered to mice 30 minutes before the intraperitoneal administration of the tested product and the values of actimetric measurements were recorded every 30 minutes for 6 hours. Potentialization of the effects of nialamide for the tested product was expressed in increasing number of + signs for a determined dose in mg/kg.

effects of L-dopa = assay: Potentialization of effects of L-dopa in iproniazide-pretreated mice; format: in vivo; details: Mus musculus, ip; i.p. one hour before L-dopa 100 mg/kg i.p.; iproniazide 75 mg/kg i.p. 18 hours before; male mice; read-out: ED50 (dose which potentializes by 50% the L-dopa effects)
Method: The administration of L-dopa to mice pretreated 18 hours previously with iproniazide produced certain number of symptoms; muscular hypertonicity, hyperactivity, agitation, crying, aggressiveness, salivation and exophthalmy. The intensity of these effects is potentialized by administration of an antidepressant one hour before the administration of L-dopa. Male mice received intraperitoneally 75 mg/kg of iproniazide 18 hours before the start of the test and the tested product was intraperitoneally administered in aqueous solution in increasing doses. One hour later, L-dopa was intraperitoneally administered at a dose of 100 mg/kg and the different symptoms were observed 15 and 30 minutes later. They were evaluated on a scale of 0 to 3 for each animal and the totals for each dose were determined.

Acute toxicity in mice = details: mouse, in vivo, ip, intraperitoneal, determined 48 hours later, read-out: DL50 (dose which kills 50% of mice)
Method: The DL50 dose which kills 50% of mice after intraperitoneal administration of the tested compound was determined 48 hours later and the DL50 for the compounds is reported in Table IV.

serotonine (5HT) uptake = assay: Inhibition of serotonine uptake in vitro (14C-5HT, impure brain synaptosomes); format: biochemical, female rat; details: rat brain synaptosomes, 37° C., 5 minutes, 14 C-5HT 10^-7 M; read-out: Test in vitro I.C. 50 (inhibition of 14C-5HT uptake)
Method: (§1) The inhibition of serotonine (5HT) uptake was measured in impure synaptosomes prepared from the entire brain of a female rat 19 to 21 days old using the technique of Kannengiesser et al. [Biochemical Pharmacology,Vol. 22, (1973) p. 73]. Diverse concentrations of the products were placed in an incubator with the preparation at 37° C. for 5 minutes in the presence of 14 C-5HT at a concentration of 10^-7 M. The 50% inhibiting concentration (IC50), dose which inhibits by 50% the uptake of 14C-5HT in the synaptosomes was determined graphically and the IC50 dose for the compounds is reported in Table V.

uptake of 14C-5HT = assay: Inhibition of serotonine uptake in vivo (synaptosomes prepared after administration to rats); parameters: key: the activity was expressed in increasing number of + signs; ++: the activity was expressed in increasing number of + signs; +++: the activity was expressed in increasing number of + signs; details: 5 to 20 mg/kg i.p., female rats 19 to 21 days old, brain removed after 30 minutes
Method: as §1
The tested products were intraperitoneally administered to groups of female rats 19 to 21 days old at doses of 5 to 20 mg/kg. After 30 minutes, the brain was removed and synaptosomes were prepared and placed in an incubator in the presence of 14 C-5HT as indicated in the previous test.

[2] = test system: 5-hydroxytryptophane (5 HTP) effects; assay: Potentialization of 5 HTP effects (trembling) in mice; format: in vivo; details: Mus musculus, i.p. one hour before 200 mg/kg 5-HTP i.p., observed every 15 minutes for one hour, read-out: MAD (minimum active dose), potentialization of 5 HTP effects
Method: The administration of 5-hydroxytryptophane (5 HTP) to mice pretreated with an antidepressant induces in the mice a particular behaviour namely the appearance of trembling.
The test product was intraperitoneally administered in increasing doses one hour before the intraperitoneal administration of 200 mg/kg of 5-HTP and the symptoms were observed were noted every 15 minutes for one hour to determine the minimum active dose (MAD) of the test product.

| SMILES | Potentialization of Nialamide ([1]; tested product 1 mg/kg i.p.) | Potentialization of Nialamide ([1]; tested product 5 mg/kg i.p.) | ED50 (effects of L-dopa) | LD50 at 48 h (Acute toxicity in mice) | pIC50 (serotonine (5HT) uptake) | In vivo Test (relative power to inhibit the uptake of 14C-5HT) (uptake of 14C-5HT) | Potentialization of Nialamide ([1]; tested product 20 mg/kg i.p.) | minimal effective dose [2] |
| --- | --- | --- | --- | --- | --- | --- | --- | --- |
| CNC1C=Cc2cc(OC)ccc2CC1.Cl (stereo not shown) [Example 3, 2-methoxy-7-methylamino-6,7-dihydro [5H] benzocycloheptene hydrochloride] | + | ++ | 5 mg/kg | 50 mg/kg | 6.57 | ++ |  |  |
| CNC1C=Cc2cc([N+](=O)[O-])ccc2CC1.Cl (stereo not shown) [Example 1, 2-nitro-7-methylamino-6,7-dihydro [5H] benzocycloheptene hydrochloride] |  | + | 1 mg/kg | 75 mg/kg | 6.49 | +++ | ++ | 10 mg/kg |
| CNC1C=Cc2cc(O)ccc2CC1.Cl (stereo not shown) [Example 4, 7-methylamino-6,7-dihydro [5H] benzocycloheptene-2-ol hydrochloride] |  |  |  | 50 mg/kg | 6.42 |  |  |  |
| CNC1C=Cc2cc(N)ccc2CC1.O=C(O)/C=C/C(=O)O (stereo not shown) [Example 2, 2-amino-7-methylamino-6,7-dihydro [5H] benzocycloheptene fumarate] |  | + | 10 mg/kg | 75 mg/kg | 5.40 | + | ++ | 5 mg/kg |
